The test concerns the target T1, A1R receptor (Homo sapiens, UniProt P30542).
T1 construct: FLAG (N); His10 (C); TEV protease cleavage site (N); α-Factor peptide (secretion signal) (N); made in house; host or cells: Pichia pastoris
T1 sequence (P30542 1-326): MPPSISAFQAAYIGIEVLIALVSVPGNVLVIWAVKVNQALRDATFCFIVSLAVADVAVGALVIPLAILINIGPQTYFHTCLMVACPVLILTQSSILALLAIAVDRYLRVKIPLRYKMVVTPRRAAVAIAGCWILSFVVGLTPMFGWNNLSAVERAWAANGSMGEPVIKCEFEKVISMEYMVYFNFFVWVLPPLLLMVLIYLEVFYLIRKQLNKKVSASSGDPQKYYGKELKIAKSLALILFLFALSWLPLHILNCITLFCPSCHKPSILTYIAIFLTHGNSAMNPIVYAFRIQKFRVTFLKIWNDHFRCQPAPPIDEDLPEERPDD
In words: In-membrane WaterLOGSY NMR, 10× diluted A1R in yeast cell membrane (YCM). Type of test: binding. Particulars: 10× diluted A1R in YCM from Pichia pastoris; FIG. 5, FIG. 8. The protocol:
The human A1 receptor and A2A receptor were cloned into pPIC9K with an N-terminal Flag tag and a C-terminal His tag. […] The lysed cell pellets were centrifuged at 9,720×g for 30 min to remove all debris and keep the released membrane fraction parts.
At the end of fermentation, the cell pellets were collected after centrifugation at 4,000×g for 15 min at 4° C. and then washed once with 50 mM HEPES, pH 7.4, 100 mM NaCl buffer. The cell pellets were resuspended into Receptor Lysis Buffer (50 mM HEPES buffer, 10% glycerol, 100 mM NaCl, 2.5 mM EDTA) using the ratio of cell pellets to buffer equal to 1:4. […] The disrupted cell pellets were centrifuged at 9,720×g for 30 min at 4° C. to discard unbroken cells and cellular debris.
NMR samples for membranes typically consisted of 270-300 μL volumes of the cell membrane in 50 mM HEPES buffer, 10% glycerol, 100 mM NaCl, 2.5 mM EDTA, doped with 10% D2O and different concentration ligands prepared in DMSO as needed.
STD and WaterLOGSY experiments were conducted at a ^1H frequency of 600 MHz using Varian Inova spectrometer. 5 mm diameter NMR tubes with a sample volume of 270-300 μL were used in all experiments. Solutions were buffered using a HEPES buffer corrected to pH 7.4 and 10% glycerol. The sample preparation is exemplified as follows, the compound (solution in DMSO-d6), 30 μL D2O was added to 240 μL membrane in an Eppendorf tube. The resulting solution was spun to ensure full mixing and transferred to a 5 mm NMR tube before the run. Both STD and WaterLOGSY spectra were recorded for each sample. WaterLOGSY spectra in the absence of protein receptor were recorded.
Take CTAP: the “WaterLOGSY NOE signal of the ligand (negative NOE = specific binding)” value is on record as “absence of obvious NOE signals”. As for `N[C@@H](Cc1ccc(F)cc1)C(=O)O` [4-Fluorophenylalanine], the entry is “positive NOEs”; as for `N[C@@H](Cc1ccc(O)c(F)c1)C(=O)O` [3-fluorotyrosine], “absence of obvious NOE signals”.

The values are drawn from patent publication US12282027B2, “High-throughput NMR approach for in-membrane protein ligand screening” (University of South Florida, priority 2021, dated 2025).
